Consider 1 compound from patent US20240165216A1, “NOVEL R[…] OF MYC[…] AND USE OF SAME” (priority 2021, published 2024).

For assay [1], the system named is MIF. As to the kind of experiment: MC38 model, co-administration with cisplatin: anti-MIF antibody titer and serum cytokines. The class given is in vivo, mouse. Particulars: versus control group; FIG. 33. The source says:
Thus, it was considered that the production of anti-MIF antibody increased, and it was expected that the production of serum cytokines, which is a measure of the increase in immune activity in the body, would also be increased.

For assay [2], the system named is immune cells secreting IFN-γ and TNF-α. As to the kind of experiment: MC38 model, co-administration with cisplatin: flow cytometry of cancer tissue. The class given is in vivo, mouse. Particulars: versus control group; FIG. 34c.

`N.N.[Cl][Pt][Cl]` [cisplatin]: in assay [1], the “serum cytokine (IFN-γ and TNF-α) levels” value is listed as “significantly increased”. In addition, the “TCRγδ T cells secreting IFN-γ in cancer tissue” value in assay [2] is “increased”.
